Laboratory results published in patent publication US6825231B2, “Substituted norbornylamino derivatives, processes for their preparation, their use as medicaments or diagnostics, and a medicament comprising them” (Aventis Pharma Deutschland GmbH, priority 1999, dated 2004).
pIC50: −log10 of the molar value. Where a name gives a salt, the structure may show the parent alone. Each block holds one compound with its values, some of them ahead of it.

Columns and labels:
Caco 2 cells = test: Caco 2 model (transport across monolayers, absorbed fraction); type: in vitro ADME; conditions: Caco 2 monolayers, apical to basolateral, assessed from Papp via calibration curve
Method: The Caco 2 cell line was obtained from the American Type Culture Collection (ATCC) and kept in Dulbecco's Modified Eagle Medium (high proportion of glucose), supplemented with non-essential amino acids, L-glutamine, penicillin/streptomycin, and 10% strength fetal calf serum, in an incubator under a 10% CO2 atmosphere at 95% relative atmospheric humidity and at 37° C. The cells were grown in cell culture flasks (175 cm^2). For the transport studies, the Caco 2 cells were inoculated onto polycarbonate cell culture inserts (COSTAR TRANSWELLS®, pore size: 3 μm, surface: 4.71 cm^2) at a cell density of 6.5×10^4 cells/cm^2 and incubated in six-well culture trays, changing the medium after four and eight days and then every other day. 21- to 25-day-old monolayers were used for the experiments.
In each test series, a 21-day-old monolayer was tested for its properties using ^3H-dextrane as permeability marker. The value of the transfer rate (cumulative) after 120 min had to be in the range of 2%.
The growth medium was removed from the apical and the basolateral side and the monolayers were then rinsed with the transport buffer (Hank's balanced salt solution pH 7.8; contains 2.8 g/l of glucose), and the cells were equilibrated at 37° C. under a 10% CO2 atmosphere for 15 min. The HBSS buffer is then removed.
The test compounds were dissolved in a mixture of HBSS buffer and DMSO and added to the apical buffer, giving a 1% strength (v/v) DMSO solution. The test concentration for the first experiment was 1 mM, that for the second experiment was 100 μM. The experiments were carried out at 37° C. and started by adding 1.5 ml of test solution on the donor side (apical). Transport buffer without compound was added to the recipient side (basolateral, 2.5 ml). […] Apical samples were taken at the start and at the end (120 min), so that the recovery rate of the compounds could be determined using these concentrations and the cumulative basolateral concentration. The compounds were analyzed by HPLC.
The apparent permeability coefficient (Papp) is calculated using the following equation: [formula]
in which dc/dt denotes the flow through the monolayer (μg of compound/(ml×s)), V denotes the liquid volume in the collection chamber (ml), A denotes the surface area of the monolayer (cm^2) and c0 denotes the initial concentration (μg of compound/ml) in the donor chamber. The flow through the monolayer was calculated from the cumulative basolateral concentration at the corresponding point of time using the initially linear data curve (linear up to 60 min). All determinations were carried out in three replications, so that the calculated Papp value is the mean of three measurements. […]

Rat NHE3 = target: T1, Rat NHE3 (Rattus norvegicus, UniProt P26433); test: NHE activity measurement: pHi recovery after acid load in transfected LAP1 cells; type: cell-based; conditions: pH recovery after acid load, 3 minutes
T1 construct: expressed in transfected cells
From the text: Most molecular biology techniques follow protocols from the works “Current Protocols in Molecular Biology (eds. Ausubel, F. M., Brent, R., Kingston, R. E., Moore, D. D., Seidman, J. G., Smith, J. A. and Struhl, K.; John Wiley & Sons)” or: “Molecular Cloning: A Laboratory Manual (Sambrock, J., Fritsch, E. F. and Maniatis, T.; Cold Spring Harbor Laboratory Press (1989))”. In our studies, stable transfected cell lines were produced which in each case express one of the following NHE subtypes: NHE1 of man (Sardet et al. Cell 56, 271-280 (1989)), NHE2 of the rabbit (Tse et al. J. Biol. Chem. 268, 11917-11924 (1993)), NHE3 from humans (Brant et al. Am. J. Physiol. 269 (Cell Physiol. 38), C198-C206 (1995)) or NHE3 of the rat (Orlowski et al.; J. Biol. Chem. 267, 9331-9339 (1992)).
After adding suitable linker sequences, the cDNA clones of the respective NHE subtypes obtained by Prof. Pouyssegur were cloned into the expression plasmid pMAMneo (obtainable, for example, via CLONTECH, Heidelberg) such that the Nhel restriction endonuclease recognition sequence of the plasmid is approximately 20-100 base pairs before the start codon of the respective NHE subtype and the entire coding sequence is present in the construct. In the human NHE3 obtained from human kidney mRNA via RT-PCR, the RT-PCR primer were selected such that the resulting cDNA band had terminal restriction sites which matched pMAMneo.
Using the so-called “calcium phosphate method” (described in Chapter 9.1 of “Current Protocols in Molecular Biology”), the NHE-deficient cell line LAP1 (Franchi et al.; Proc. Natl. Acad. Sci. USA 83, 9388-9392 (1986)) was transfected with the plasmids which contain the respective coding sequences of the NHE subtypes. After selection of transfected cells by means of growth in G418-containing medium (only cells which as a result of transfection contain a neogene can survive under these conditions), a selection was made for functional NHE expression. To do this, the “Acid Load” technique described by Sardet was used (Sardet et al.; Cell 56, 271-280 (1989)). Cells which express a functioning NHE subtype can also compensate in the absence of CO2 and HCO3- for the acidification carried out during this test, but untransfected LAP1 cells cannot. After repetition of the “Acid Load” selection several times, the surviving cells were inoculated into microtiter plates such that statistically there should have been one cell per well. Under the microscope, a check was made after approximately 10 days as to how many colonies were growing per well. Cell populations of individual colonies were then investigated with respect to their viability after “Acid Load” using the XTT proliferation kit (Boehringer Mannheim). The best cell lines were used for the further tests, and to avoid a loss of the transfected sequence were cultured under continuous selection pressure in G418-containing medium.
To determine IC50-values for the inhibition of the individual NHE subtypes by specific substances, a test developed by S. Faber (Faber et al.; Cell. Physiol. Biochem. 6, 39-49 (1996)), which is based on the “Acid Load” technique, was slightly modified.
In this test, the recovery of the intracellular pH (pHi) after an acidification was determined, which commences with functioning NHE even under bicarbonate-free conditions. To do this, the pHi was determined using the pH-sensitive fluorescent dye BCECF (Calbiochem, the precursor BCECF-AM is employed). The cells were first loaded with BCECF. The BCECF fluorescence was determined in a “Ratio Fluorescence Spectrometer” (Photon Technology International, South Brunswick, N.J., USA) at excitation wavelengths of 505 and 440 nm and an emission wavelength of 535 nm and converted into the pHi by means of calibration curves. […]

male Wistar rats = test: Diuresis (salidiuresis) experiment in rats; type: in vivo, rat; conditions: for Cl / K / Na: urine excretion; for Na/K / Osmolality: urine
Method: The salidiuresis experiment was carried out using male Wistar rats having a weight of 155 to 175 g. 16 hours before the start of the experiment, the feed, but not the drinking water, was withdrawn from the animals. The rats were randomized and placed into diuresis cages. […] The control group received, orally, the corresponding volume of drinking water as vehicle. The excretion of urine of each group for the first 5 hours and in the period from 6 to 24 hours was measured. The urine electrolytes sodium and potassium were determined by flame photometry (flame photometer Eppendorf, Hamburg), and chloride was determined potentiometrically (chloride meter Eppendorf). The osmolality of the urine was determined using the freezing-point depression method (osmometer Vogel, Gieβen). Urine and electrolyte excretion and osmolality are stated in ml/kg, mmol/kg, and mosmol/kg of body weight, respectively. The ratio of Na^+/K^+ is an indication of the quality of effect of a diuretic. The results given in the table are arithmetic means with standard deviation.

[1] = 50 mg/kg p.o., mean, 6-24 hours
[2] = 50 mg/kg p.o., mean, sum 1-24 hours

T1 sequence (P26433 29-831): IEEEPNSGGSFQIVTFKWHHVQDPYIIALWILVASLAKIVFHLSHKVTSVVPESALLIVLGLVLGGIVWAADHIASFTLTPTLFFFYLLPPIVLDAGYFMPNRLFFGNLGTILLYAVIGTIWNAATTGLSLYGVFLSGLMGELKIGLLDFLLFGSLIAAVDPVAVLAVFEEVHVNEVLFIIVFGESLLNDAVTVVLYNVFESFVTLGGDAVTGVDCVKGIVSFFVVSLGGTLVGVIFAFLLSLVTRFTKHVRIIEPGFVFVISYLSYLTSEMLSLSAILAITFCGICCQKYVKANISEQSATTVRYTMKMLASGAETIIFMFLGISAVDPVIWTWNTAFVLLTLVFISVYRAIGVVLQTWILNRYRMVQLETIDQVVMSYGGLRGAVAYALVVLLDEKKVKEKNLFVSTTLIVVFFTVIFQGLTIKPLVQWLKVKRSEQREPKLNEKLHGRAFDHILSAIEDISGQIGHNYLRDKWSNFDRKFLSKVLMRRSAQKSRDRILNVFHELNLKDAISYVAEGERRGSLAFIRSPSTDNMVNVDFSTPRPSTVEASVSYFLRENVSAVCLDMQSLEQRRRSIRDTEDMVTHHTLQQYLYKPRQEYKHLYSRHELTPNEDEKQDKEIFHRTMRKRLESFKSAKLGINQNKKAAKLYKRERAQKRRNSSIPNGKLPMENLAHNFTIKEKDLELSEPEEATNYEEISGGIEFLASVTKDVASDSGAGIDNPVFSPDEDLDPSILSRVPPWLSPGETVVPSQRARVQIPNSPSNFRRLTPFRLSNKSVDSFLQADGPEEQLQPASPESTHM

Absorbed fraction (Caco 2 cells): <1%
Structure (SMILES): C/C(=C\c1cccc(/C=C(\C)C(=O)N=C(N)N)c1)C(=O)N=C(N)N.Cl.Cl [S 2120, reference compound]

pIC50 (Rat NHE3): 4.51
Structure (SMILES): COc1cccc(CN[C@@H]2CC3CC2[C@@H]2CCC[C@H]32)c1 (stereo partly drawn) [Example 7, (endo/exo)-(3-methoxybenzyl)(octahydro-4,7-methanoinden-5-yl)amine hydrochloride]

pIC50 (Rat NHE3): 5.30
Structure (SMILES): COc1cccc(CN[C@@H]2C[C@@H]3C[C@H]2[C@H]2CCC[C@@H]32)c1 (relative stereo) [Example 9, (exo/exo)-(3-methoxybenzyl)(octahydro-4,7-methanoinden-5-yl)amine hydrochloride]

Structure (SMILES): COc1cccc(CNC2CC3CC2C2CCCC32)c1 (single isomer, unassigned; (+)) [(+)−6, (+)-(exo/endo)-(3-methoxybenzyl)(octahydro-4,7-methanoinden-5-yl) amine hydrochloride]
pIC50 (Rat NHE3; hydrochloride): 6.30

melting point: 222 to 225 °C
Structure (SMILES): COc1cccc(CCN[C@@H]2C[C@@H]3C[C@H]2[C@@H]2CCC[C@H]32)c1.Cl

Absorbed fraction (Caco 2 cells): 100%
pIC50 (Rat NHE3): 6.09
Structure (SMILES): COc1cccc(CN[C@@H]2C[C@@H]3C[C@H]2[C@@H]2CCC[C@H]32)c1.Cl (racemic) [Example 5, rac-(exo/endo)-(3-methoxybenzyl)(octahydro-4,7-methanoinden-5-yl)amine hydrochloride]
Urine (male Wistar rats; 50 mg in 10 ml of drinking water/kg of BW p.o., n = 5, mean, 1-5 hours): 12.39 mL/kg
salidiuretic effect (assessment) (male Wistar rats; 50 mg/kg orally, compared to the control): no salidiuretic effect
Urine (male Wistar rats; [1]): 22.57 mL/kg
Urine (male Wistar rats; [2]): 34.96 mL/kg
Cl (male Wistar rats; 50 mg/kg p.o., mean, 1-5 hours): 0.60 mmol/kg
K (male Wistar rats; 50 mg/kg p.o., mean, 1-5 hours): 0.75 mmol/kg
Na (male Wistar rats; 50 mg/kg p.o., mean, 1-5 hours): 0.31 mmol/kg
Cl (male Wistar rats; [1]): 1.57 mmol/kg
K (male Wistar rats; [1]): 3.57 mmol/kg
Na (male Wistar rats; [1]): 1.29 mmol/kg
Cl (male Wistar rats; [2]): 2.17 mmol/kg
K (male Wistar rats; [2]): 4.31 mmol/kg
Na (male Wistar rats; [2]): 1.60 mmol/kg
Na/K (male Wistar rats; 50 mg/kg p.o., mean, 1-5 hours): 0.47
Osmolality (male Wistar rats; 50 mg/kg p.o., mean, 1-5 hours): 7.82 mosmol/kg
Na/K (male Wistar rats; [1]): 0.37
Osmolality (male Wistar rats; [1]): 30.51 mosmol/kg
Na/K (male Wistar rats; [2]): 0.38
Osmolality (male Wistar rats; [2]): 38.33 mosmol/kg

melting point: 248 °C
Structure (SMILES): Brc1cccc(CN[C@@H]2C[C@@H]3C[C@H]2[C@@H]2CCC[C@H]32)c1.Cl

Absorbed fraction (Caco 2 cells): 100%
pIC50 (Rat NHE3): 6.05
Structure (SMILES): Cl.Fc1cccc(CN[C@@H]2C[C@@H]3C[C@H]2[C@@H]2CCC[C@H]32)c1 [Example 10, (exo/endo)-(3-fluorobenzyl)(octahydro-4,7-methanoinden-5-yl)amine hydrochloride]

melting point: 134 °C
Structure (SMILES): COCCOc1cccc(CN[C@@H]2C[C@@H]3C[C@H]2[C@@H]2CCC[C@H]32)c1.Cl

melting point: 234 to 236 °C
Structure (SMILES): COc1cccc(CN[C@@H]2C[C@@H]3C[C@H]2[C@@H]2CCCC[C@H]32)c1.Cl

pIC50 (Rat NHE3): 4.15
Structure (SMILES): COc1cccc(CN[C@@H]2CC3CC2[C@H]2CCC[C@@H]32)c1 (stereo partly drawn) [Example 8, (endo/endo)-(3-methoxybenzyl)(octahydro-4,7-methanoinden-5-yl)amine hydrochloride]

melting point: 166 to 170 °C (dec.)
Structure (SMILES): CN(C)c1cccc(CN[C@@H]2C[C@@H]3C[C@H]2[C@@H]2CCC[C@H]32)c1.Cl

melting point: 220 to 224 °C (dec.)
Structure (SMILES): Cl.Ic1cccc(CN[C@@H]2C[C@@H]3C[C@H]2[C@@H]2CCC[C@H]32)c1

Absorbed fraction (Caco 2 cells): <5%
Structure (SMILES): C/C(=C\c1ccc(C)cc1/C=C(\C)C(=O)N=C(N)N)C(=O)N=C(N)N.Cl.Cl [S 3226, reference compound]

Structure (SMILES): COc1cccc(CNC2CC3CC2C2CCCC32)c1 (single isomer, unassigned; (-)) [(−)−6, (−)-(exo/endo)-(3-methoxybenzyl)(octahydro-4,7-methanoinden-5-yl)amine hydrochloride]
pIC50 (Rat NHE3; hydrochloride): 6.00

melting point: 258 to 261 °C
Structure (SMILES): O=C(O)c1cccc(CN[C@@H]2C[C@@H]3C[C@H]2[C@@H]2CCC[C@H]32)c1 [Example 14, (exo/endo)-3-[(octahydro-4,7-methanoinden-5-ylamino)-methyl]benzoic acid]

melting point: 186 to 188 °C
Structure (SMILES): COc1cccc(CCCN[C@@H]2C[C@@H]3C[C@H]2[C@@H]2CCC[C@H]32)c1.Cl
